Laboratory results as given in patent publication US9440987B2, “Aromatic ring compound” (TAKEDA PHARMACEUTICAL COMPANY LIMITED, priority 2012, dated 2016).

Columns and labels:
[1] = target: T1, human MCHR1 (Homo sapiens, UniProt Q99705); experiment: Human MCH receptor 1 (MCHR1) binding inhibitory activity, [125I]-MCH(4-19) binding assay with MCHR1-expressing CHO cellular membrane fraction; details: test compound 0.1 μM, human MCHR1-expressing CHO cell membrane, read-out: Binding inhibition rate % (0.1 μM)
T1 construct: expressed in transfected cells; host or cells: CHO cell clone 57 (membrane fraction)
T1 sequence (Q99705 whole entry): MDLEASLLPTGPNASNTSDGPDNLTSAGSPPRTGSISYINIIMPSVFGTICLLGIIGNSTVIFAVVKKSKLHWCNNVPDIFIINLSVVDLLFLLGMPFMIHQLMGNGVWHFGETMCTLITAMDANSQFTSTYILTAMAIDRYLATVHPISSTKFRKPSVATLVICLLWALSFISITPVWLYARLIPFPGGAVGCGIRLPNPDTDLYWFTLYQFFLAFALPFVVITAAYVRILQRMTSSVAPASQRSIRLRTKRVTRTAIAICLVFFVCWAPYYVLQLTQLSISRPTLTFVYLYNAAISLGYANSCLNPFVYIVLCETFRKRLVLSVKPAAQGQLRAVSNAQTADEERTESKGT
Procedure: Using human MCHR1(=SLC-1 receptor)-expressing CHO cell clone 57 described in WO01/82925, MCHR1-expressing CHO cellular membrane fractions were prepared by the following method. […] Homogenate buffer (10 mL, 10 mM NaHCO3, 5 mM EDTA, pH 7.5, 0.5 mM PMSF (phenylmethylsulfonyl fluoride), 20 mg/L leupeptin, 4 mg/L E-64, 1 mg/L pepstatin A) was added to the pellets of the cells and, using Polytron Homogenizer, the mixture was homogenated. The supernatant obtained after centrifugation at 400×g for 10 min was further centrifuged at 100,000×g for 1 hr to give precipitate of the membrane fraction. The precipitate were suspended in 2 mL of assay buffer [20 mM Tris-HCl (pH 7.5), 5 mM EDTA, 0.5 mM PMSF, 20 mg/L leupeptin, 4 mg/L E-64, 1 mg/L pepstatin A]. The membrane fractions were suspended in assay buffer to a protein concentration of 2 mg/mL, and after dispensing, preserved at −80° C. and used upon thawing each time when in use. The MCHR1 ligand binding inhibitory activity of the test compound was determined as follows. An MCHR1-expressing CHO cellular membrane fraction (173 μL) diluted with an assay buffer was dispensed to a 96 well polypropylene plate (3363, Corning). […] Using a treating glass filter plate (GF/C, PerkinElmer) with polyethyleneimine, which had been previously set, the plate was suction-filtered and washed three times with washing buffer (50 mM Tris-HCl buffer pH 7.5). The glass filter plate was dried, MicroScinti0 (PerkinElmer) was added at 25 μL/well, and the resulting radioactivity was measured by TopCount liquid scintillation counter (PerkinElmer). The binding inhibition rate of the test compound was calculated by the following formula.

[2] = target: T1, human MCHR1; experiment: MCH receptor 1 antagonistic activity, Ca2+ mobilization assay in human MCHR1-expressing CHO cells (clone #4); format: cell-based; details: test compound 0.1 μM, ligand MCH(4-19) 2 nM, read-out: Inhibition rate % (0.1 μM)
Procedure: Measurement of MCH Receptor 1 Antagonistic Activity of Test Compound Using Ca^2+ Mobilization Assay
Using an expression vector plasmid introduced with human MCHR1 gene for expression in animal cells, human MCHR1 gene was introduced into CHO cells (CHO dhfr^−) by Lipofectamine LTX (Invitrogen). The cells were cultured in selection MEMα medium [445 mL of MEMα medium without nucleic acid and added with 5 mL of Penicillin-Streptomycin (Invitrogen) and 50 mL of dialyzed fetal bovine serum]. Colony 24 clones grown in the selection medium, which were human MCHR1 gene-expressing CHO cell candidates, were selected. […] In the following test, this human MCHR1-expressing CHO cell (clone #4) was used. An integrated dispensing function fluorometer (CellLux, PerkinElmer) was used for Ca^2+ mobilization assay. The CHO cells were sown in a 96 well plate (type 3904, Corning) with a black wall and clear well bottom at a density of 20000 cells/well, and cultured in an incubator for about 24 hr at 5% CO2, 37° C. The medium was removed, and the cells were washed with phosphate buffered saline (PBS). A Ca^2+ indicator dye reagent (DOJINDO LABORATORIES, Ca screening no-wash kit Fluo4) was added at 100 μL/well, and the dye was allowed to penetrate into the cell for 30 min in an incubator at 5% CO2, 37° C. The plate was set on a plate reader. First, a test compound solution diluted with an assay buffer [10 mM HEPES (pH 7.4), 1× assay buffer containing 0.1% BSA (DOJINDO LABORATORIES, attached to Ca screening no-wash kit Fluo4)] or DMSO solution was added at 50 μL/well, and then ligand MCH (4-19) peptide (final concentration 2 nM) diluted with assay buffer or DMSO was added at 50 μL/well, during which changes in intracellular fluorescence were measured at 2 second intervals. […]
The inhibition rates (%) of test compounds (0.1 μM) as antagonist activity measured using human MCHR1-expressing CHO cells (clone #4) are shown in the following Table 3.

| inhibition at 0.1 µM [1] | inhibition at 0.1 µM [2] | SMILES |
| --- | --- | --- |
| 100% | 82% | Cc1c(C2CC2)nc2ccc(-n3ccc4oc(-c5ccc(Cl)cc5)cc4c3=O)cn12 [Example 1, 2-(4-Chlorophenyl)-5-(2-cyclopropyl-3-methylimidazo[1,2-a]pyridin-6-yl)furo[3,2-c]pyridin-4(5H)-one] |
| 91% |  | Cn1c([C@H]2C[C@H]2C(C)(C)O)nc2ccc(-n3ccc4oc(-c5ccc(Cl)cc5)cc4c3=O)cc21 (racemic) [Example 4, 2-(4-Chlorophenyl)-5-(2-((1RS,2SR)-2-(2-hydroxypropan-2-yl)cyclopropyl)-1-methyl-1H-benzimidazol-6-yl)furo[3,2-c]pyridin-4(5H)-one] |
| 79% | 70% | Cn1c(C2CC2)nc2ccc(-n3ccc4oc(-c5ccc(Cl)cc5)cc4c3=O)cc21 [Example 2, 2-(4-Chlorophenyl)-5-(2-cyclopropyl-1-methyl-1H-benzimidazol-6-yl)furo[3,2-c]pyridin-4(5H)-one] |
| 74% | 92% | Cc1c(C2CC2)nc2ccc(-n3ccc4oc(-c5ccc(Cl)cn5)cc4c3=O)cn12 [Example 3, 2-(5-Chloropyridin-2-yl)-5-(2-cyclopropyl-3-methylimidazo[1,2-a]pyridin-6-yl)furo[3,2-c]pyridin-4(5H)-one] |
